Legend:
SAS = experiment: cells; assay type: functional, cell-based, Homo sapiens;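 note: growth inhibition of SAS cells, read out with a cell viability assay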
Description: SANGER: Inhibition of human SAS cell growth in a cell viability assay.

NCI-H441 = experiment: cells; assay type: functional, cell-based, Homo sapiens;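 note: growth inhibition of NCI-H441 cells, read out with a cell viability assay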
Description: SANGER: Inhibition of human NCI-H441 cell growth in a cell viability assay.

NCI-H2342 = experiment: cells; assay type: functional, cell-based, Homo sapiens;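 note: growth inhibition of the cancer cell line, determined with a cell viability assay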
Description: SANGER: Inhibition of human NCI-H2342 cell growth in a cell viability assay.

DG-75 = experiment: cells; assay type: functional, cell-based, Homo sapiens;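 note: growth inhibition of DG-75 cells, read out with a cell viability assay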
Description: SANGER: Inhibition of human DG-75 cell growth in a cell viability assay.

BC1 cell line = experiment: SANGER: Inhibition of human BC-1 cell growth in a cell viability assay.; assay type: functional, cell-based
NCI-H2009 = experiment: cells; assay type: functional, cell-based, Homo sapiens;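 note: cell viability assay measuring inhibition of NCI-H2009 cell growth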
Description: SANGER: Inhibition of human NCI-H2009 cell growth in a cell viability assay.

NCI-H661 = experiment: cells; assay type: functional, cell-based, Homo sapiens;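 note: cell viability assay read-out, IC50 being the concentration that inhibits growth of the cells by half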
Description: SANGER: Inhibition of human NCI-H661 cell growth in a cell viability assay.

SW948 = experiment: cells; assay type: functional, cell-based, Homo sapiens;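 note: growth inhibition of SW948 cells, read out with a cell viability assay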
Description: SANGER: Inhibition of human SW948 cell growth in a cell viability assay.

NCI-H596 = experiment: cells; assay type: functional, cell-based, Homo sapiens;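 note: growth inhibition of NCI-H596 cells, read out with a cell viability assay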
Description: SANGER: Inhibition of human NCI-H596 cell growth in a cell viability assay.

NCI-H1436 = experiment: cells; assay type: functional, cell-based, Homo sapiens;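 note: growth suppression of human NCI-H1436 cells, determined with a cell viability readout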
Description: SANGER: Inhibition of human NCI-H1436 cell growth in a cell viability assay.

HLE = experiment: cells; assay type: functional, cell-based, Homo sapiens;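 note: growth inhibition of human HLE cells, read out by a cell viability assay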
Description: SANGER: Inhibition of human HLE cell growth in a cell viability assay.

T84 = experiment: cells; assay type: functional, cell-based, Homo sapiens;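 note: growth inhibition measured with a cell viability readout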
Description: SANGER: Inhibition of human T84 cell growth in a cell viability assay.

AU565 = experiment: cells; assay type: functional, cell-based, Homo sapiens;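 note: cell viability assay measuring growth inhibition of human AU565 cells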
Description: SANGER: Inhibition of human AU565 cell growth in a cell viability assay.

CAMA-1 = experiment: cells; assay type: functional, cell-based, Homo sapiens;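 note: growth inhibition of CAMA-1 cells, read out with a cell viability assay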
Description: SANGER: Inhibition of human CAMA-1 cell growth in a cell viability assay.

NCI-H810 = experiment: cells; assay type: functional, cell-based, Homo sapiens;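 note: IC50 reflects inhibition of cancer cell line growth, read out with a cell viability assay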
Description: SANGER: Inhibition of human NCI-H810 cell growth in a cell viability assay.

NCI-H1573 = experiment: cells; assay type: functional, cell-based, Homo sapiens;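 note: growth inhibition of NCI-H1573 cells, read out with a cell viability assay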
Description: SANGER: Inhibition of human NCI-H1573 cell growth in a cell viability assay.

RO82-W-1 = experiment: cells; assay type: functional, cell-based, Homo sapiens;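 note: growth inhibition of human RO82-W-1 cells, measured with a cell viability assay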
Description: SANGER: Inhibition of human RO82-W-1 cell growth in a cell viability assay.

JEG-3 = experiment: cells; assay type: functional, cell-based, Homo sapiens;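 note: growth inhibition of human JEG-3 cells, read out with a cell viability assay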
Description: SANGER: Inhibition of human JEG-3 cell growth in a cell viability assay.

HT-1376 = experiment: cells; assay type: functional, cell-based, Homo sapiens
Description: SANGER: Inhibition of human HT-1376 cell growth in a cell viability assay.

BEN = experiment: cells; assay type: functional, cell-based, Homo sapiens;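 note: growth inhibition of the BEN cell line, read out with a cell viability assay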
Description: SANGER: Inhibition of human BEN cell growth in a cell viability assay.

HT55 = experiment: cells; assay type: functional, cell-based, Homo sapiens;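 note: cell viability readout measuring growth inhibition of human HT55 cells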
Description: SANGER: Inhibition of human HT55 cell growth in a cell viability assay.

Calu-3 = experiment: cells; assay type: functional, cell-based, Homo sapiens;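 note: growth inhibition of human Calu-3 cells, determined with a cell viability assay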
Description: SANGER: Inhibition of human Calu-3 cell growth in a cell viability assay.

UMC-11 = experiment: cells; assay type: functional, cell-based, Homo sapiens;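 note: growth inhibition of UMC-11 cells, read out with a cell viability assay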
Description: SANGER: Inhibition of human UMC-11 cell growth in a cell viability assay.

HT-29 = experiment: cells; assay type: functional, cell-based, Homo sapiens;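 note: growth inhibition of human HT-29 cells, read out by a cell viability assay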
Description: SANGER: Inhibition of human HT-29 cell growth in a cell viability assay.

SK-N-AS = experiment: cells; assay type: functional, cell-based, Homo sapiens;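 note: growth inhibition of human SK-N-AS cells, measured with a cell viability assay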
Description: SANGER: Inhibition of human SK-N-AS cell growth in a cell viability assay.

COR-L105 = experiment: cells; assay type: functional, cell-based, Homo sapiens
Description: SANGER: Inhibition of human COR-L105 cell growth in a cell viability assay.

KARPAS-422 = experiment: cells; assay type: functional, cell-based, Homo sapiens
Description: SANGER: Inhibition of human KARPAS-422 cell growth in a cell viability assay.

NCI-H1792 = experiment: cells; assay type: functional, cell-based, Homo sapiens;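 note: growth inhibition of human NCI-H1792 cells, read out as cell viability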
Description: SANGER: Inhibition of human NCI-H1792 cell growth in a cell viability assay.

P12-Ichikawa = experiment: cells; assay type: functional, cell-based, Homo sapiens
SK-LU-1 = experiment: cells; assay type: functional, cell-based, Homo sapiens;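 note: cell viability assay measuring growth inhibition of human SK-LU-1 cells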
Description: SANGER: Inhibition of human SK-LU-1 cell growth in a cell viability assay.

LOUCY = experiment: cells; assay type: functional, cell-based, Homo sapiens;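 note: growth inhibition of human LOUCY cells, read out with a cell viability assay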
Description: SANGER: Inhibition of human LOUCY cell growth in a cell viability assay.

HSC-2 = experiment: cells; assay type: functional, cell-based, Homo sapiens;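 note: growth inhibition of human HSC-2 cells, read out by a cell viability assay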
Description: SANGER: Inhibition of human HSC-2 cell growth in a cell viability assay.

BFTC-905 = experiment: cells; assay type: functional, cell-based, Homo sapiens
Description: SANGER: Inhibition of human BFTC-905 cell growth in a cell viability assay.

RPMI-7951 = experiment: cells; assay type: functional, cell-based, Homo sapiens
Description: SANGER: Inhibition of human RPMI-7951 cell growth in a cell viability assay.

SW1088 = experiment: cells; assay type: functional, cell-based, Homo sapiens;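 note: growth inhibition of human SW1088 cells, read out by a cell viability assay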
Description: SANGER: Inhibition of human SW1088 cell growth in a cell viability assay.

NCI-H2122 = experiment: cells; assay type: functional, cell-based, Homo sapiens;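 note: growth inhibition of the cells, read out with a cell viability assay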
Description: SANGER: Inhibition of human NCI-H2122 cell growth in a cell viability assay.

UACC-62 = experiment: cells; assay type: functional, cell-based, Homo sapiens;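 note: growth inhibition of human UACC-62 cells, read out by a cell viability assay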
Description: SANGER: Inhibition of human UACC-62 cell growth in a cell viability assay.

MFE-280 = experiment: cells; assay type: functional, cell-based, Homo sapiens;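 note: growth inhibition of MFE-280 cells, determined with a cell viability readout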
Description: SANGER: Inhibition of human MFE-280 cell growth in a cell viability assay.

AGS = experiment: cells; assay type: functional, cell-based, Homo sapiens;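 note: growth inhibition of AGS cells, determined with a cell viability assay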
Description: SANGER: Inhibition of human AGS cell growth in a cell viability assay.

CAL-72 = experiment: cells; assay type: functional, cell-based, Homo sapiens;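 note: cell viability assay measuring inhibition of proliferation in the CAL-72 cell line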
Description: SANGER: Inhibition of human CAL-72 cell growth in a cell viability assay.

HCT-15 = experiment: cells; assay type: functional, cell-based, Homo sapiens;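 note: cell viability readout, IC50 reflecting suppression of HCT-15 cell growth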
Description: SANGER: Inhibition of human HCT-15 cell growth in a cell viability assay.

NCI-H1993 = experiment: cells; assay type: functional, cell-based, Homo sapiens;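 note: growth inhibition of the cancer cell line, assessed with a cell viability assay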
Description: SANGER: Inhibition of human NCI-H1993 cell growth in a cell viability assay.

RMG-I = experiment: cells; assay type: functional, cell-based, Homo sapiens;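 note: growth inhibition of human RMG-I cells, read out with a cell viability assay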
Description: SANGER: Inhibition of human RMG-I cell growth in a cell viability assay.

NCI-H1694 = experiment: cells; assay type: functional, cell-based, Homo sapiens;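 note: cell viability assay measuring inhibition of growth in human NCI-H1694 cells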
Description: SANGER: Inhibition of human NCI-H1694 cell growth in a cell viability assay.

SNU-16 = experiment: cells; assay type: functional, cell-based, Homo sapiens;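 note: growth inhibition of human SNU-16 cells, determined with a cell viability readout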
Description: SANGER: Inhibition of human NCI-SNU-16 cell growth in a cell viability assay.

Cc1cc([N+](=O)[O-])ccc1NS(=O)(=O)c1cc(Cl)ccc1Cl
IC50 (SAS; Homo sapiens, SAS): > 32 µM | IC50 (NCI-H441; Homo sapiens, NCI-H441): 6.75 µM | IC50 (NCI-H2342; Homo sapiens, NCI-H2342): 4.93 µM | IC50 (DG-75; Homo sapiens, DG-75): > 32 µM | IC50 (BC1 cell line; Homo sapiens, BC1): 3.6 µM | IC50 (NCI-H2009; Homo sapiens, NCI-H2009): 2.69 µM | IC50 (NCI-H661; Homo sapiens, NCI-H661): 2.82 µM | IC50 (SW948; Homo sapiens, SW948): 12.3 µM | IC50 (NCI-H596; Homo sapiens, NCI-H596): 7.95 µM | IC50 (NCI-H1436; Homo sapiens, NCI-H1436): > 32 µM | IC50 (HLE; Homo sapiens, HLE): 1.99 µM | IC50 (T84; Homo sapiens, T84): 4.69 µM | IC50 (AU565; Homo sapiens, AU565): 2.34 µM | IC50 (CAMA-1; Homo sapiens, CAMA-1): 0.911 µM | IC50 (NCI-H810; Homo sapiens, NCI-H810): 1.25 µM | IC50 (NCI-H1573; Homo sapiens, NCI-H1573): > 32 µM | IC50 (RO82-W-1; Homo sapiens, RO82-W-1): > 32 µM | IC50 (JEG-3; Homo sapiens, JEG-3): 4.9 µM | IC50 (HT-1376; Homo sapiens, HT-1376): 3.81 µM | IC50 (BEN; Homo sapiens, BEN): 2.28 µM | IC50 (HT55; Homo sapiens, HT55): > 32 µM | IC50 (Calu-3; Homo sapiens, Calu-3): 2.87 µM | IC50 (UMC-11; Homo sapiens, UMC-11): 1.09 µM | IC50 (HT-29; Homo sapiens, HT-29): 5.53 µM | IC50 (SK-N-AS; Homo sapiens, SK-N-AS): 6.53 µM | IC50 (COR-L105; Homo sapiens, COR-L105): 6.58 µM | IC50 (KARPAS-422; Homo sapiens, KARPAS-422): 8.26 µM | IC50 (NCI-H1792; Homo sapiens, NCI-H1792): 8.53 µM | IC50 (P12-Ichikawa; Homo sapiens, P12-Ichikawa): 13.8 µM | IC50 (SK-LU-1; Homo sapiens, SK-LU-1): 3.27 µM | IC50 (LOUCY; Homo sapiens, LOUCY): 20 µM | IC50 (HSC-2; Homo sapiens, HSC-2): 4.56 µM | IC50 (BFTC-905; Homo sapiens, BFTC-905): 3.65 µM | IC50 (RPMI-7951; Homo sapiens, RPMI-7951): 29.3 µM | IC50 (SW1088; Homo sapiens, SW1088): 12.3 µM | IC50 (NCI-H2122; Homo sapiens, NCI-H2122): 1.17 µM | IC50 (UACC-62; Homo sapiens, UACC-62): 0.256 µM | IC50 (MFE-280; Homo sapiens, MFE-280): 2.77 µM | IC50 (AGS; Homo sapiens, AGS): 5.37 µM | IC50 (CAL-72; Homo sapiens, CAL-72): > 32 µM | IC50 (HCT-15; Homo sapiens, HCT-15): 6.87 µM | IC50 (NCI-H1993; Homo sapiens, NCI-H1993): 17.2 µM | IC50 (RMG-I; Homo sapiens, RMG-I): 11.5 µM | IC50 (NCI-H1694; Homo sapiens, NCI-H1694): 22.8 µM | IC50 (SNU-16; Homo sapiens, SNU-16): > 32 µM

Oc1ccc2ccccc2c1SSc1c(O)ccc2ccccc12
IC50 (SAS; Homo sapiens, SAS): > 32 µM | IC50 (NCI-H441; Homo sapiens, NCI-H441): > 32 µM | IC50 (NCI-H2342; Homo sapiens, NCI-H2342): > 32 µM | IC50 (DG-75; Homo sapiens, DG-75): > 32 µM | IC50 (BC1 cell line; Homo sapiens, BC1): > 32 µM | IC50 (NCI-H2009; Homo sapiens, NCI-H2009): 5.04 µM | IC50 (NCI-H661; Homo sapiens, NCI-H661): > 32 µM | IC50 (SW948; Homo sapiens, SW948): > 32 µM | IC50 (NCI-H596; Homo sapiens, NCI-H596): > 32 µM | IC50 (NCI-H1436; Homo sapiens, NCI-H1436): > 32 µM | IC50 (HLE; Homo sapiens, HLE): 4.52 µM | IC50 (T84; Homo sapiens, T84): 12.2 µM | IC50 (AU565; Homo sapiens, AU565): 31.2 µM | IC50 (CAMA-1; Homo sapiens, CAMA-1): > 32 µM | IC50 (NCI-H810; Homo sapiens, NCI-H810): > 32 µM | IC50 (NCI-H1573; Homo sapiens, NCI-H1573): > 32 µM | IC50 (RO82-W-1; Homo sapiens, RO82-W-1): > 32 µM | IC50 (JEG-3; Homo sapiens, JEG-3): > 32 µM | IC50 (HT-1376; Homo sapiens, HT-1376): > 32 µM | IC50 (BEN; Homo sapiens, BEN): > 32 µM | IC50 (HT55; Homo sapiens, HT55): > 32 µM | IC50 (Calu-3; Homo sapiens, Calu-3): > 32 µM | IC50 (UMC-11; Homo sapiens, UMC-11): > 32 µM | IC50 (HT-29; Homo sapiens, HT-29): > 32 µM | IC50 (SK-N-AS; Homo sapiens, SK-N-AS): > 32 µM | IC50 (COR-L105; Homo sapiens, COR-L105): 7.36 µM | IC50 (KARPAS-422; Homo sapiens, KARPAS-422): 7.84 µM | IC50 (NCI-H1792; Homo sapiens, NCI-H1792): > 32 µM | IC50 (P12-Ichikawa; Homo sapiens, P12-Ichikawa): > 32 µM | IC50 (SK-LU-1; Homo sapiens, SK-LU-1): 18.9 µM | IC50 (LOUCY; Homo sapiens, LOUCY): > 32 µM | IC50 (HSC-2; Homo sapiens, HSC-2): > 32 µM | IC50 (BFTC-905; Homo sapiens, BFTC-905): 5.15 µM | IC50 (RPMI-7951; Homo sapiens, RPMI-7951): > 32 µM | IC50 (SW1088; Homo sapiens, SW1088): > 32 µM | IC50 (NCI-H2122; Homo sapiens, NCI-H2122): > 32 µM | IC50 (UACC-62; Homo sapiens, UACC-62): > 32 µM | IC50 (MFE-280; Homo sapiens, MFE-280): > 32 µM | IC50 (AGS; Homo sapiens, AGS): > 32 µM | IC50 (CAL-72; Homo sapiens, CAL-72): 24.7 µM | IC50 (HCT-15; Homo sapiens, HCT-15): > 32 µM | IC50 (NCI-H1993; Homo sapiens, NCI-H1993): > 32 µM | IC50 (RMG-I; Homo sapiens, RMG-I): > 32 µM | IC50 (NCI-H1694; Homo sapiens, NCI-H1694): > 32 µM | IC50 (SNU-16; Homo sapiens, SNU-16): > 32 µM

BLEOMYCIN
IC50 (SAS; sas): 3.26 µM | IC50 (NCI-H441; nci-h441): 9.05 µM | IC50 (NCI-H2342; nci-h2342): 0.0138 µM | IC50 (DG-75; dg-75): 16.9 µM | IC50 (BC1 cell line; bc1): 3.92 µM | IC50 (NCI-H2009; nci-h2009): 2.56 µM | IC50 (NCI-H661; nci-h661): 2.79 µM | IC50 (SW948; sw948): 354 µM | IC50 (NCI-H596; nci-h596): 13.6 µM | IC50 (NCI-H1436; nci-h1436): 2770 µM | IC50 (HLE; hle): 4 µM | IC50 (T84; t84): 13.5 µM | IC50 (AU565; au565): 2.05 µM | IC50 (CAMA-1; cama-1): 17.5 µM | IC50 (NCI-H810; nci-h810): 55.1 µM | IC50 (NCI-H1573; nci-h1573): 268 µM | IC50 (RO82-W-1; ro82-w-1): 339 µM | IC50 (JEG-3; jeg-3): 8.55 µM | IC50 (HT-1376; ht-1376): 9.74 µM | IC50 (BEN; ben): 46 µM | IC50 (HT55; ht55): 1040 µM | IC50 (Calu-3; calu-3): 6.19 µM | IC50 (UMC-11; umc-11): 2360 µM | IC50 (HT-29; ht-29): 0.535 µM | IC50 (SK-N-AS; sk-n-as): 1950 µM | IC50 (COR-L105; cor-l105): 7.37 µM | IC50 (KARPAS-422; karpas-422): 168 µM | IC50 (NCI-H1792; nci-h1792): 2.57 µM | IC50 (P12-Ichikawa; p12-ichikawa): 5.55 µM | IC50 (SK-LU-1; sk-lu-1): 0.999 µM | IC50 (LOUCY; loucy): 0.00993 µM | IC50 (HSC-2; hsc-2): 2.47 µM | IC50 (BFTC-905; bftc-905): 2.32 µM | IC50 (RPMI-7951; rpmi-7951): 1.24 µM | IC50 (SW1088; sw1088): 818 µM | IC50 (NCI-H2122; nci-h2122): 0.51 µM | IC50 (UACC-62; uacc-62): 188 µM | IC50 (MFE-280; mfe-280): 359 µM | IC50 (AGS; ags): 0.503 µM | IC50 (CAL-72; cal-72): 580 µM | IC50 (HCT-15; hct-15): 0.0951 µM | IC50 (NCI-H1993; nci-h1993): 646 µM | IC50 (RMG-I; rmg-i): 0.000132 µM | IC50 (NCI-H1694; nci-h1694): 43.9 µM | IC50 (SNU-16; snu-16): 16100 µM

— ChEMBL document CHEMBL1201861, “Genomics of Drug Sensitity in Cancer screening data, Wellcome Trust Sanger Institute”
